The target of this assay is Human immunodeficiency virus type 1 protease (Human immunodeficiency virus 1, UniProt Q72874). Briefly: Inhibitory activity against HIV-I protease was determined.

With `CC(C)CN(C[C@@H](O)[C@H](Cc1ccccc1)NC(=O)O[C@H]1CCOC1)S(=O)(=O)NC(C)(C)C`, the Ki (as a rule, the dissociation constant of the complex between target and ligand, obtained from inhibition or displacement) amounted to 42 nM.
`CC(C)CN(C[C@@H](O)[C@H](Cc1ccccc1)NC(=O)[C@H](CC(N)=O)NC(=O)c1ccc2ccccc2n1)S(=O)(=O)N1ONc2ccccc21`: the Ki was found to be 0.1 nM.

For the origin of these results see ChEMBL document CHEMBL1149172, “BREED: Generating novel inhibitors through hybridization of known ligands. Application to CDK2, p38, and HIV protease” (J Med Chem, 2004).
